Test system: spliced XBP1
Test: Spliced XBP1 mRNA measurement test (RT-PCR, tunicamycin-induced ER stress in MCF-7 cells)
Type: cell-based
Conditions: Homo sapiens, MCF7, compound pre-treated for 1 hour, then 2 µg/mL tunicamycin for 6 or 24 hours, spliced XBP1 corrected by total XBP1
Experimental: With respect to these synthetic compounds, reverse transcription polymerase chain reaction (RT-PCR) experiments were conducted on MCF-7 cancer cells to confirm the effect thereof on the mRNA and protein amounts of spliced XBP1, which is the target of IRE endonuclease. A reverse transcription polymerase chain reaction is a test method in which RNA is extracted from cells, reverse transcriptase is used to make cDNA, and relative mRNA expression level is measured through a polymerase chain reaction.
Briefly, MCF-7 cells were seeded in a 12-well plate and cultured in an incubator including 5% CO2 for one day. On the next day, compounds, which were 10-fold serially diluted from 10,000 nM, were pre-treated for 1 hour, and then, treated with 2 µg/mL tunicamycin for 6 or 24 hours to induce endoplasmic reticulum stress, followed by cell lysis to obtain RNA. RNA was subjected to the procedure of RNeasy Kits (Qiagen, 74106), and 5 µg of RNA sample was dissolved in a sample including reverse transcriptase and dNTP, and reverse transcription reaction was performed with a thermal cycler. The amount of mRNA of each of spliced XBP1 and total XBP1 was measured by a polymerase chain reaction through real time PCR by mixing each cDNA sample with a PCR reaction mixture including a primer pair capable of binding specifically to each target and SYBR green dye. The expression level of spliced XBP1 was corrected by the total expression level of XBP1, and the relative expression levels of spliced XBP1 between samples were compared and analyzed.

SMILES	IC50 [nM]
Cc1c(CC(=O)N2CCC(C)CC2)c(=O)oc2c(C=O)c(O)c3c(c12)CCCO3 [Example 4, 6-hydroxy-1-methyl-2-(2-(4-methylpiperidin-1-yl)-2-oxoethyl)-3-oxo-3,8,9,10-tetrahydropyrano[3,2-f]chromene-5-carbaldehyde]	≥ 200
Cc1c(CC(=O)N2CCN(C)CC2)c(=O)oc2c(C=O)c(O)c3c(c12)CCCO3 [Example 6, 6-hydroxy-1-methyl-2-(2-(4-methylpiperazin-1-yl)-2-oxoethyl)-3-oxo-3,8,9,10-tetrahydropyrano[3,2-f]chromene-5-carbaldehyde]	< 100
Cc1c(CC(=O)N2CCN(C(C)C)CC2)c(=O)oc2c(C=O)c(O)c3c(c12)CCCO3 [Example 7, 6-hydroxy-2-(2-(4-isopropylpiperazin-1-yl)-2-oxoethyl)-1-methyl-3-oxo-3,8,9,10-tetrahydropyrano[3,2-f]chromene-5-carbaldehyde]	100 to 200
Cc1c(CC(=O)N2CCC(F)C2)c(=O)oc2c(C=O)c(O)c3c(c12)CCCO3 (stereo not shown) [Example 16, 2-(2-(3-fluoropyrrolidin-1-yl)-2-oxoethyl)-6-hydroxy-1-methyl-3-oxo-3,8,9,10-tetrahydropyrano[3,2-f]chromene-5-carbaldehyde]	≥ 200
CCc1c(CC(=O)N2CCCC2)c(=O)oc2c(C=O)c(O)c3c(c12)CCCO3 [Example 18, 1-ethyl-6-hydroxy-3-oxo-2-(2-oxo-2-(pyrrolidin-1-yl)ethyl)-3,8,9,10-tetrahydropyrano[3,2-f]chromene-5-carbaldehyde]	≥ 200
Cc1c(CC(=O)N2CC(F)C2)c(=O)oc2c(C=O)c(O)c3c(c12)CCCO3 [Example 19, 2-(2-(3-fluoroazetidin-1-yl)-2-oxoethyl)-6-hydroxy-1-methyl-3-oxo-3,8,9,10-tetrahydropyrano[3,2-f]chromene-5-carbaldehyde]	100 to 200
Cc1c(CC(=O)N2CCC3(CC3)C2)c(=O)oc2c(C=O)c(O)c3c(c12)CCCO3 [Example 20, 6-hydroxy-1-methyl-3-oxo-2-(2-oxo-2-(5-azaspiro[2.4]heptan-5-yl)ethyl)-3,8,9,10-tetrahydropyrano[3,2-f]chromene-5-carbaldehyde]	100 to 200
Cc1c(CC(=O)N2CCCCC2)c(=O)oc2c(C=O)c(O)c3c(c12)CCCO3 [Example 21, 6-hydroxy-1-methyl-3-oxo-2-(2-oxo-2-(piperidin-1-yl)ethyl)-3,8,9,10-tetrahydropyrano[3,2-f]chromene-5-carbaldehyde]	≥ 200
Cc1c(CC(N)=O)c(=O)oc2c(C=O)c(O)c3c(c12)CCCO3 [Example 22, 2-(5-formyl-6-hydroxy-1-methyl-3-oxo-3,8,9,10-tetrahydropyrano[3,2-f]chromen-2-yl)acetamide]	≥ 200
CC(C)c1c(CC(=O)N2CCCC2)c(=O)oc2c(C=O)c(O)c3c(c12)CCCO3 [Example 23, 6-hydroxy-1-isopropyl-3-oxo-2-(2-oxo-2-(pyrrolidin-1-yl)ethyl)-3,8,9,10-tetrahydropyrano[3,2-f]chromene-5-carbaldehyde]	100 to 200
CC(=O)N1CCN(C(=O)Cc2c(C)c3c4c(c(O)c(C=O)c3oc2=O)OCCC4)CC1 [Example 26, 2-(2-(4-acetylpiperazin-1-yl)-2-oxoethyl)-6-hydroxy-1-methyl-3-oxo-3,8,9,10-tetrahydropyrano[3,2-f]chromene-5-carbaldehyde]	≥ 200
Cc1c(CC(=O)N2CCSCC2)c(=O)oc2c(C=O)c(O)c3c(c12)CCCO3 [Example 28, 6-hydroxy-1-methyl-3-oxo-2-(2-oxo-2-thiomorpholinoethyl)-3,8,9,10-tetrahydropyrano[3,2-f]chromene-5-carbaldehyde]	100 to 200
Cc1c(CC(=O)NCCN2CCOCC2)c(=O)oc2c(C=O)c(O)c3c(c12)CCCO3 [Example 29, 2-(5-formyl-6-hydroxy-1-methyl-3-oxo-3,8,9,10-tetrahydropyrano[3,2-f]chromen-2-yl)-N-(2-morpholinoethyl)acetamide]	≥ 200
Cc1c(CC(=O)N2CCNCC2)c(=O)oc2c(C=O)c(O)c3c(c12)CCCO3 [Example 31, 6-hydroxy-1-methyl-3-oxo-2-(2-oxo-2-(piperazin-1-yl)ethyl)-3,8,9,10-tetrahydropyrano[3,2-f]chromene-5-carbaldehyde]	≥ 200

Other lines, results leading:

IC50 [nM]	SMILES
< 100	Cc1c(CC(=O)N2CCOCC2)c(=O)oc2c(C=O)c(O)c3c(c12)CCO3 [Example 1, 4-hydroxy-9-methyl-8-(2-morpholino-2-oxoethyl)-7-oxo-1,7-dihydro-2H-furo[3,2-f]chromene-5-carbaldehyde]
100 to 200	Cc1c(CC(=O)N2CCOCC2)c(=O)oc2c(C=O)c(O)c3c(c12)OCO3 [Example 2, 4-hydroxy-9-methyl-8-(2-morpholino-2-oxoethyl)-7-oxo-7H-[1,3]dioxolo[4,5-f]chromene-5-carbaldehyde]
< 100	Cc1c(CC(=O)N2CCOCC2)c(=O)oc2c(C=O)c(O)c3c(c12)CCCO3 [Example 3, 6-hydroxy-1-methyl-2-(2-morpholino-2-oxoethyl)-3-oxo-3,8,9,10-tetrahydropyrano[3,2-f]chromene-5-carbaldehyde]
< 100	Cc1c(CC(=O)N2CCCC2)c(=O)oc2c(C=O)c(O)c3c(c12)CCCO3 [Example 5, 6-hydroxy-1-methyl-3-oxo-2-(2-oxo-2-(pyrrolidin-1-yl)ethyl)-3,8,9,10-tetrahydropyrano[3,2-f]chromene-5-carbaldehyde]
< 100	CCNC(=O)Cc1c(C)c2c3c(c(O)c(C=O)c2oc1=O)OCC3 [Example 8, N-ethyl-2-(5-formyl-4-hydroxy-9-methyl-7-oxo-1,7-dihydro-2H-furo[3,2-f]chromen-8-yl)acetamide]
< 100	CCN(CC)C(=O)Cc1c(C)c2c3c(c(O)c(C=O)c2oc1=O)OCC3 [Example 9, N,N-diethyl-2-(5-formyl-4-hydroxy-9-methyl-7-oxo-1,7-dihydro-2H-furo[3,2-f]chromen-8-yl)acetamide]
< 100	Cc1c(CC(=O)N2CCC(F)(F)C2)c(=O)oc2c(C=O)c(O)c3c(c12)CCCO3 [Example 10, 2-(2-(3,3-difluoropyrrolidin-1-yl)-2-oxoethyl)-6-hydroxy-1-methyl-3-oxo-3,8,9,10-tetrahydropyrano[3,2-f]chromene-5-carbaldehyde]
< 100	Cc1c(CC(=O)N2CCC(C)C2)c(=O)oc2c(C=O)c(O)c3c(c12)CCCO3 (stereo not shown) [Example 11, 6-hydroxy-1-methyl-2-(2-(3-methylpyrrolidin-1-yl)-2-oxoethyl)-3-oxo-3,8,9,10-tetrahydropyrano[3,2-f]chromene-5-carbaldehyde]
100 to 200	Cc1c(CC(=O)N2CCC(C)(C)C2)c(=O)oc2c(C=O)c(O)c3c(c12)CCCO3 [Example 12, 2-(2-(3,3-dimethylpyrrolidin-1-yl)-2-oxoethyl)-6-hydroxy-1-methyl-3-oxo-3,8,9,10-tetrahydropyrano[3,2-f]chromene-5-carbaldehyde]
100 to 200	Cc1c(CC(=O)N2CCC2)c(=O)oc2c(C=O)c(O)c3c(c12)CCCO3 [Example 13, 2-(2-(azetidin-1-yl)-2-oxoethyl)-6-hydroxy-1-methyl-3-oxo-3,8,9,10-tetrahydropyrano[3,2-f]chromene-5-carbaldehyde]
100 to 200	COC1CCN(C(=O)Cc2c(C)c3c4c(c(O)c(C=O)c3oc2=O)OCCC4)C1 (stereo not shown) [Example 14, 6-hydroxy-2-(2-(3-methoxypyrrolidin-1-yl)-2-oxoethyl)-1-methyl-3-oxo-3,8,9,10-tetrahydropyrano[3,2-f]chromene-5-carbaldehyde]
100 to 200	COC1CN(C(=O)Cc2c(C)c3c4c(c(O)c(C=O)c3oc2=O)OCCC4)C1 [Example 15, 6-hydroxy-2-(2-(3-methoxyazetidin-1-yl)-2-oxoethyl)-1-methyl-3-oxo-3,8,9,10-tetrahydropyrano[3,2-f]chromene-5-carbaldehyde]
< 100	CCNC(=O)Cc1c(C)c2c3c(c(O)c(C=O)c2oc1=O)OCCC3 [Example 17, N-ethyl-2-(5-formyl-6-hydroxy-1-methyl-3-oxo-3,8,9,10-tetrahydropyrano[3,2-f]chromen-2-yl)acetamide]
< 100	COCCNC(=O)Cc1c(C)c2c3c(c(O)c(C=O)c2oc1=O)OCCC3 [Example 24, 2-(5-formyl-6-hydroxy-1-methyl-3-oxo-3,8,9,10-tetrahydropyrano[3,2-f]chromen-2-yl)-N-(2-methoxyethyl)acetamide]
< 100	CCN(CC)C(=O)Cc1c(C)c2c3c(c(O)c(C=O)c2oc1=O)OCCC3 [Example 25, N,N-diethyl-2-(5-formyl-6-hydroxy-1-methyl-3-oxo-3,8,9,10-tetrahydropyrano[3,2-f]chromen-2-yl)acetamide]
< 100	Cc1c(CC(=O)N2CC3CC2CO3)c(=O)oc2c(C=O)c(O)c3c(c12)CCCO3 (stereo not shown) [Example 27, 2-(2-(2-oxa-5-azabicyclo[2.2.1]heptan-5-yl)-2-oxoethyl)-6-hydroxy-1-methyl-3-oxo-3,8,9,10-tetrahydropyrano[3,2-f]chromene-5-carbaldehyde]
< 100	Cc1c(CC(=O)N2CCSC2)c(=O)oc2c(C=O)c(O)c3c(c12)CCCO3 [Example 30, 6-hydroxy-1-methyl-3-oxo-2-(2-oxo-2-(thiazolidin-3-yl)ethyl)-3,8,9,10-tetrahydropyrano[3,2-f]chromene-5-carbaldehyde]
